Test: mn = molality of the nth substance listed, in mol/kg
Details: 100 kPa, Liquid; for speed of sound: Frequency=3 MHz, Single path-length method; for mass density: Vibrating tube method

[Cl-].[Li+] [lithium chloride] + O
Details | mass density, 288.15 K [kg/m3] | mass density, 293.15 K [kg/m3] | mass density, 298.15 K [kg/m3] | mass density, 303.15 K [kg/m3] | mass density, 308.15 K [kg/m3] | speed of sound, 288.15 K [m/s] | speed of sound, 293.15 K [m/s] | speed of sound, 298.15 K [m/s] | speed of sound, 303.15 K [m/s] | speed of sound, 308.15 K [m/s]
m1 = 0.05 | 1000.33 | 999.427 | 998.265 | 996.862 | 995.242 | 1469.6 | 1485.6 | – | 1512 | –
m1 = 0.1002 | 1001.57 | 1000.66 | 999.489 | 998.083 | – | 1472.7 | 1488.6 | 1502.6 | 1514.8 | 1525.3
m1 = 0.1498 | 1002.78 | 1001.87 | 1000.69 | 999.281 | 997.651 | 1475.8 | 1491.6 | 1505.5 | 1517.6 | –
m1 = 0.1999 | 1004 | 1003.08 | 1001.89 | 1000.48 | 998.845 | 1478.8 | 1494.6 | 1508.3 | 1520.3 | 1530.7
m1 = 0.2502 | 1005.22 | 1004.28 | 1003.1 | 1001.68 | 1000.04 | 1482 | 1497.6 | 1511.2 | – | –
m1 = 0.2999 | 1006.41 | 1005.47 | 1004.28 | 1002.86 | 1001.21 | 1485 | 1500.5 | 1514.1 | 1525.9 | 1536
m1 = 0.3503 | 1007.63 | 1006.67 | 1005.47 | 1004.05 | 1002.4 | 1488.1 | 1503.5 | 1516.9 | 1528.6 | 1538.7
m1 = 0.4 | 1008.83 | 1007.86 | 1006.65 | 1005.22 | 1003.57 | 1491.1 | 1506.3 | 1519.6 | 1531.2 | 1541.2
m1 = 0.4503 | 1010.02 | 1009.04 | 1007.83 | 1006.4 | 1004.74 | 1494.2 | 1509.2 | 1522.4 | 1533.9 | 1543.8
m1 = 0.5 | 1011.21 | 1010.21 | 1008.99 | 1007.56 | 1005.9 | 1497.2 | 1512.1 | 1525.1 | 1536.6 | 1546.4
